Reference: ChEMBL document CHEMBL4665792 (J Med Chem, 2020)
Calls of active or inactive are those of the source. The rule behind the calls is not given here.

Experiments:
[1] = Inhibition of TrxR in human HT-29 cells incubated for 30 mins in presence of insulin, NADPH and Trx by DTNB reagent based assay; type: cell-based
[2] = Inhibition of TrxR in human HT-29 cells incubated for 60 mins in presence of insulin, NADPH and Trx by DTNB reagent based assay; type: cell-based
[3] = Inhibition of TrxR in human HT-29 cells incubated for 90 mins in presence of insulin, NADPH and Trx by DTNB reagent based assay; type: cell-based
L02 = experiment: Cytotoxicity against human L02 cells assessed as cell viability incubated for 24 hrs by MTT assay; type: cell-based; settings: L02, 24 h
HT-29 [4] = experiment: Antiproliferative activity against human HT-29 cells assessed as reduction in cell viability incubated for 24 hrs by MTT assay; type: functional, cell-based; settings: HT-29, 24 h
MCF7 = experiment: Antiproliferative activity against human MCF7 cells assessed as reduction in cell viability incubated for 24 hrs by MTT assay; type: functional, cell-based; settings: MCF7, 24 h
HepG2 = experiment: Antiproliferative activity against human HepG2 cells assessed as reduction in cell viability incubated for 24 hrs by MTT assay; type: functional, cell-based; settings: HepG2, 24 h
HCT-116 = experiment: Antiproliferative activity against human HCT-116 cells assessed as reduction in cell viability incubated for 24 hrs by MTT assay; type: functional, cell-based; settings: HCT-116, 24 h
HK-2 = experiment: Cytotoxicity against human HK2 cells assessed as cell viability incubated for 24 hrs by MTT assay; type: cell-based; settings: HK-2, 24 h
HT-29 [5] = experiment: Inhibition of TrxR in human HT-29 cells incubated for 24 hrs in presence of insulin, NADPH and Trx by DTNB reagent based assay; type: cell-based
HT-29 [6] = experiment: Inhibition of GPx in human HT-29 cells incubated for 24 hrs in presence of GSH, NADPH and GR measured at 10 secs interval for 4 mins; type: cell-based; settings: time 1444.0 min
[7] = molecular target: T1, Glutathione reductase, mitochondrial (Homo sapiens) (UniProt P00390); experiment: Inhibition of GR in human HT-29 cells incubated for 24 hrs in presence of GSSG and NADPH; type: cell-based
T1 sequence (whole entry): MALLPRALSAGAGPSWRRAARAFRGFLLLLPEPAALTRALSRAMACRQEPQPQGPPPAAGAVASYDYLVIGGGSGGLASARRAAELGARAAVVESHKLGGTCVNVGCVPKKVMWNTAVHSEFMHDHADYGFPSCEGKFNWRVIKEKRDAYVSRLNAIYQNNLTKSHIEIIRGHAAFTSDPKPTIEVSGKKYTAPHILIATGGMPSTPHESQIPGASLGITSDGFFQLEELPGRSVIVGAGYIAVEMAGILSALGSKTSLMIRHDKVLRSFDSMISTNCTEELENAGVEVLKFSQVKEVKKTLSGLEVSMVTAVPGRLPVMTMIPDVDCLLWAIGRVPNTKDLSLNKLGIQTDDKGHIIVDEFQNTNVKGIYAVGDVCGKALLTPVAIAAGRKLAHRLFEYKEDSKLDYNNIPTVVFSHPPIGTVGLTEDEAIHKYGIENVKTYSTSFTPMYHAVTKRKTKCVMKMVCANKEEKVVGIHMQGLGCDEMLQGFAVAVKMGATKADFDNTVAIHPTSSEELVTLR

[8] = Inhibition of TrxR (unknown origin) in presence of NADPH by Ellman's method; design: species or system Homo sapiens
[9] = Covalent inhibition of TrxR (unknown origin) assessed as covalent bond formation incubated up to 30 mins in presence of NADPH by Ellman's method; design: species or system Homo sapiens
[10] = molecular target: T2, Thioredoxin (Homo sapiens) (UniProt P10599); experiment: Inhibition of Trx in human HT-29 cells incubated for 24 hrs in presence of insulin, NADPH and DTT; type: cell-based
T2 sequence (whole entry): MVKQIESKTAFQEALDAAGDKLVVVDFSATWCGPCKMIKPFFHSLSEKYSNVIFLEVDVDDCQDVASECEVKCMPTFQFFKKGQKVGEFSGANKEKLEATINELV

[11] = Inhibition of Escherichia coli Trx incubated for 1.5 hrs in presence of DTT and insulin

| Compound | IC50 [1] | IC50 [2] | IC50 [3] | IC50 (HT-29 [4]) | IC50 (MCF7) | IC50 (HepG2) | IC50 (HCT-116) | further results |
| --- | --- | --- | --- | --- | --- | --- | --- | --- |
| O=c1c(O)c(-c2cc(O)c(O)c(O)c2)oc2cc(O)cc(O)c12 [MYRICETIN] | 930 nM | 720 nM | 650 nM | > 20000 nM | > 20000 nM | > 20000 nM | > 20000 nM | IC50 (L02): > 20000 nM; IC50 (HK-2): > 20000 nM |
| CC(=O)O[C@H]1C=C([C@H](C)[C@H]2CC(C)=C(C)C(=O)O2)[C@@]2(C)CC[C@H]3[C@@H](C[C@H]4O[C@]45[C@@H](O)C=CC(=O)[C@]35C)[C@]12O | 4920 nM | 3350 nM | 2640 nM | 2480 nM | 6320 nM | 2850 nM | 2370 nM | inhibition (HT-29 [5]): Active; IC50 (L02): 8210 nM; inhibition (HT-29 [6]): Active; inhibition [7]: Active; IC50 (HK-2): 6410 nM; IC50 [8]: 2640 nM; Ki [9]: 9120 nM; inhibition [10]: Active; IC50 [11]: > 2500 nM |
| C=CC(=O)O[C@H]1C=CC(=O)[C@]2(C)[C@H]3CC[C@]4(C)C([C@H](C)[C@H]5CC(C)=C(C)C(=O)O5)=C[C@H](OC(C)=O)[C@@]4(O)[C@@H]3C[C@H]3O[C@]132 | 3910 nM | 2850 nM | 2060 nM | 780 nM | 1060 nM | 520 nM | 330 nM |  |
| CC(=O)O[C@H]1[C@@H]2O[C@]2([C@H](C)[C@H]2CC(C)=C(C)C(=O)O2)[C@@]2(C)CC[C@H]3[C@@H](C[C@H]4O[C@]45[C@@H](O)C=CC(=O)[C@]35C)[C@]12O |  |  |  | 4550 nM | 9360 nM | 4660 nM | 5040 nM |  |
| CC(=O)O[C@H]1C=C([C@H](C)[C@H]2CC(C)=C(C)C(=O)O2)[C@@]2(C)CC[C@H]3[C@@H](C[C@H]4O[C@]45[C@@H](OC(=O)/C=C/c4cccc(C(F)(F)F)c4)C=CC(=O)[C@]35C)[C@]12O |  |  |  | 810 nM | 1390 nM | 420 nM | 650 nM |  |
| CC(=O)O[C@H]1C=C([C@H](C)[C@H]2CC(C)=C(C)C(=O)O2)[C@@]2(C)CC[C@H]3[C@@H](C[C@H]4O[C@]45[C@@H](OC(=O)C=C(C)C)C=CC(=O)[C@]35C)[C@]12O |  |  |  | 460 nM | 750 nM | 260 nM | 280 nM |  |
| CC(=O)O[C@H]1C=C([C@H](C)[C@H]2CC(C)=C(C)C(=O)O2)[C@@]2(C)CC[C@H]3[C@@H](C[C@H]4O[C@]45[C@@H](OC(=O)N4CCCCC4)C=CC(=O)[C@]35C)[C@]12O |  |  |  | 1380 nM | 4310 nM | 410 nM | 730 nM |  |

Now from value to molecule, other results behind:

| IC50 [1] | IC50 [2] | IC50 [3] | IC50 (HT-29 [4]) | IC50 (MCF7) | IC50 (HepG2) | IC50 (HCT-116) | Compound | further results |
| --- | --- | --- | --- | --- | --- | --- | --- | --- |
| 3810 nM | 2910 nM | 2150 nM |  |  |  |  | CC(=O)O[C@H]1C=C([C@H](C)[C@H]2CC(C)=C(C)C(=O)O2)[C@@]2(C)CC[C@H]3[C@@H](C[C@H]4O[C@]45[C@@H](OC(=O)CCC(=O)N(C)C)C=CC(=O)[C@]35C)[C@]12O |  |
|  |  |  | 750 nM | 1210 nM | 690 nM | 430 nM | CCN(CC)C(=O)O[C@H]1C=CC(=O)[C@]2(C)[C@H]3CC[C@]4(C)C([C@H](C)[C@H]5CC(C)=C(C)C(=O)O5)=C[C@H](OC(C)=O)[C@@]4(O)[C@@H]3C[C@H]3O[C@]132 |  |
|  |  |  | 720 nM | 1580 nM | 610 nM | 1030 nM | CC(=O)O[C@H]1C=C([C@H](C)[C@H]2CC(C)=C(C)C(=O)O2)[C@@]2(C)CC[C@H]3[C@@H](C[C@H]4O[C@]45[C@@H](OC(=O)/C=C/c4ccc(F)cc4)C=CC(=O)[C@]35C)[C@]12O |  |
|  |  |  | 630 nM | 2160 nM | 640 nM | 470 nM | CC(=O)O[C@H]1C=C([C@H](C)[C@H]2CC(C)=C(C)C(=O)O2)[C@@]2(C)CC[C@H]3[C@@H](C[C@H]4O[C@]45[C@@H](OC(=O)CNC(=O)OC(C)(C)C)C=CC(=O)[C@]35C)[C@]12O |  |
|  |  |  | 1120 nM | 2140 nM | 1230 nM | 890 nM | CC(=O)O[C@H]1C=C([C@H](C)[C@H]2CC(C)=C(C)C(=O)O2)[C@@]2(C)CC[C@H]3[C@@H](C[C@H]4O[C@]45[C@@H](OC(=O)N4CCCC4)C=CC(=O)[C@]35C)[C@]12O |  |
|  |  |  | 1010 nM | 2100 nM | 1060 nM | 670 nM | CC(=O)O[C@H]1C=C([C@H](C)[C@H]2CC(C)=C(C)C(=O)O2)[C@@]2(C)CC[C@H]3[C@@H](C[C@H]4O[C@]45[C@@H](OC(=O)N(C)C)C=CC(=O)[C@]35C)[C@]12O |  |
